Like-named read-outs stand apart in the source and are kept apart here.

Experiment [1] concerns the target T1, DPB1*02:01 (Homo sapiens, UniProt P04440+P20036, A65V/A84D/A85E/K98E).
T1 sequence (P20036 29-260): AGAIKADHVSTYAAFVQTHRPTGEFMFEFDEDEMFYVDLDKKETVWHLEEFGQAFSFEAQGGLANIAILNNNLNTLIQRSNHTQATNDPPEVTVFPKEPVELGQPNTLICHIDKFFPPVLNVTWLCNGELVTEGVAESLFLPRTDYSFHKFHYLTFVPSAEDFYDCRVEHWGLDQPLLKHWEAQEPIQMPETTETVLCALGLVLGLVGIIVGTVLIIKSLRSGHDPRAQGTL
T1 sequence (P04440 30-258 A65V/A84D/A85E/K98E): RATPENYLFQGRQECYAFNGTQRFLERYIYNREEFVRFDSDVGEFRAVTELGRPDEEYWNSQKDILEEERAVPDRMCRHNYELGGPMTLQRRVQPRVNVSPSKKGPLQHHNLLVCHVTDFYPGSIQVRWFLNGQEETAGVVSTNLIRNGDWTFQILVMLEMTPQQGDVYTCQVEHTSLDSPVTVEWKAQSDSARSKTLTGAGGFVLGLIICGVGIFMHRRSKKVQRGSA
As to the kind of experiment: competition binding assay, purified HLA DPB1*02:01.

The target in experiment [2] is DRB1*03:01 (Homo sapiens, UniProt P01903+P01911, A100K/A102G/A103R/A169T/F55Y/I96L/K41T/L162R/M171V/P40S/Q125H/Q178H/Q39Y/R42S/S66N/T106N/T262R/W38E/Y61H). Kind of experiment: competition binding assay, purified HLA DRB1*03:01.
For experiment [3], the target named is DRB1*11:01 (Homo sapiens, UniProt P01903+P01911, A100R/A169T/A87E/I96F/K41T/L162R/M171V/P40S/Q125H/Q178H/Q39Y/Q99D/R42S/S66Y/T262R/V115G/W38E). Kind of experiment: competition binding assay, purified HLA DRB1*11:01.
Experiment [4] addresses DRB1*15:01 (Homo sapiens, UniProt P01903+P01911). As to the kind of experiment: competition binding assay, purified HLA DRB1*15:01.
The target in experiment [5] is DRB3*02:02 (Homo sapiens, UniProt P01903+P79483, A212P/D57E/F66Y/L67A/R103Q/R218S/R40L/S89Y/T80R/V86D/Y55F/Y59H). Kind of experiment: competition binding assay, purified HLA DRB3*02:02.
Experiment [6] addresses DRB5*01:01 (Homo sapiens, UniProt P01903+Q30154). Kind of experiment: competition binding assay, purified HLA DRB5*01:01.
The target of experiment [7] is DRB1*04:01 (Homo sapiens, UniProt P01903+P01911, A100K/A169T/F76Y/I96L/K127E/L162R/M171V/N62H/P40V/Q125Y/R42H/S133A/S149N/S66Y/V115G/V209L/W38E). Kind of experiment: competition binding assay, purified HLA DRB1*04:01. To be noted: radiolabeled peptide competition, nM.
For experiment [8], the target named is DRB3*01:01 (Homo sapiens, UniProt P01903+P79483). Kind of experiment: competition binding assay, purified HLA DRB3*01:01. Conditions: radiolabeled peptide competition, nM.
Where [9] appears, read: purified HLA, radiolabeled peptide competition, nM, read-out: binding to DRB1*03:01 (IC50).
Setting [10] is: purified HLA, radiolabeled peptide competition, nM, read-out: binding to DRB1*11:01 (IC50).
[11] abbreviates: purified HLA, radiolabeled peptide competition, nM, read-out: binding to DRB3*02:02 (IC50).
Setting [12] is: purified HLA, radiolabeled peptide competition, nM, read-out: binding to DRB5*01:01 (IC50).

In the case of `CSCC[C@H](NC(=O)[C@H](CCC(=O)O)NC(=O)[C@H](Cc1ccc(O)cc1)NC(=O)[C@H](C)NC(=O)[C@H](CCC(=O)O)NC(=O)[C@H](CC(N)=O)NC(=O)[C@@H](N)CC(=O)O)C(=O)N1CCC[C@H]1C(=O)N[C@@H](CO)C(=O)N[C@@H](CCC(=O)O)C(=O)N[C@@H](CCC(=O)O)C(=O)NCC(=O)N[C@@H](Cc1ccc(O)cc1)C(=O)N[C@@H](CCC(N)=O)C(=O)N[C@@H](CC(=O)O)C(=O)O`, the half-inhibitory concentration (IC50) in experiment [1], in experiment [2], in experiment [3], in experiment [4], in experiment [5] and in experiment [6] was over 10000 nM each time.

In the case of `CSCC[C@H](NC(=O)[C@H](CCC(=O)O)NC(=O)[C@H](Cc1ccc(O)cc1)NC(=O)[C@H](C)NC(=O)[C@H](CCC(=O)O)NC(=O)[C@H](CC(N)=O)NC(=O)[C@@H](N)CC(=O)O)C(=O)N1CCC[C@H]1C(=O)N[C@@H](COP(=O)(O)O)C(=O)N[C@@H](CCC(=O)O)C(=O)N[C@@H](CCC(=O)O)C(=O)NCC(=O)N[C@@H](Cc1ccc(O)cc1)C(=O)N[C@@H](CCC(N)=O)C(=O)N[C@@H](CC(=O)O)C(=O)O`, the IC50 – broadly, the concentration at which inhibition is half-maximal – was over 10000 nM in experiment [1] (purified HLA, radiolabeled peptide competition, nM, read-out: binding to DPB1*02:01 (IC50)); over 10000 nM in experiment [2] (setting [9]); 9130 nM in experiment [7]; over 10000 nM in experiment [3] (setting [10]); over 10000 nM in experiment [4] (purified HLA, radiolabeled peptide competition, nM, read-out: binding to DRB1*15:01 (IC50)); 9180 nM in experiment [8]. In addition, the IC50 in experiment [5] (setting [11]) and in experiment [6] (setting [12]) was over 10000 nM throughout.

In the case of `CSCC[C@H](NC(=O)[C@@H](N)CCC(=O)O)C(=O)N1CCC[C@H]1C(=O)N[C@@H](COP(=O)(O)O)C(=O)N[C@@H](CCC(=O)O)C(=O)N[C@@H](CCC(=O)O)C(=O)NCC(=O)N[C@@H](Cc1ccc(O)cc1)C(=O)N[C@@H](CCC(N)=O)C(=O)N[C@@H](CC(=O)O)C(=O)N[C@@H](Cc1ccc(O)cc1)C(=O)N[C@@H](CCC(=O)O)C(=O)N1CCC[C@H]1C(=O)N[C@@H](CCC(=O)O)C(=O)N[C@@H](C)C(=O)O`, the IC50 in experiment [1] was over 10000 nM; in experiment [2] (setting [9]) it was over 10000 nM; in experiment [7], 4950 nM; in experiment [3] (setting [10]), over 10000 nM; in experiment [8] it was over 10000 nM; in experiment [5] (setting [11]), over 10000 nM. Further, the IC50 in experiment [6] (setting [12]) is over 10000 nM.

For the origin of these results see US20200095296A1, “USE OF PEPTIDES AS BIOMARKERS IN THE DIAGNOSIS, CONFIRMATION AND TREATMENT OF A NEUROLOGICAL DISORDER AND TCR AND/OR HLA IMMUNOPROFILING IN NEURODEGENERATIVE DISEASE” (THE TRUSTEES OF COLUMBIA UNIVERSITY IN THE CITY OF NEW YORK, priority 2017, published 2020).
